Our source for the T/C values is PubChem BioAssay AID256 (DTP/NCI, 2004).

The test system of this test is CD2F1 mice, L1210 leukemia ip, survival T/C. In words: NCI In Vivo Anticancer Drug Screen. Data for tumor model L1210 Leukemia (intraperitoneal) in CD2F1 (CDF1) mice. The conditions noted are these: higher = longer survival. In short, it runs like this:
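Antitumor effect is scored in animals hosting a serially transplanted tumor. Values compare compound-dosed animals against vehicle-only controls as a simple quotient.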

The mark [1] stands for this setting: endpoint: mean survival time, dose: 100.0 mg/kg/injection, schedule: Q01DX001 (ip), vehicle: saline with Tween-80.
[2] abbreviates: endpoint: mean survival time, dose: 200.0 mg/kg/injection, schedule: Q01DX001 (ip), vehicle: saline with Tween-80.
[3] abbreviates: endpoint: mean survival time, dose: 100.0 mg/kg/injection, schedule: Q04DX003 (ip), vehicle: saline with Tween-80.
Where [4] appears, read: endpoint: mean survival time, dose: 200.0 mg/kg/injection, schedule: Q04DX003 (ip), vehicle: saline with Tween-80.
The mark [5] stands for this setting: endpoint: mean survival time, dose: 400.0 mg/kg/injection, schedule: Q04DX003 (ip), vehicle: saline with Tween-80.
Where [6] appears, read: endpoint: mean survival time, dose: 100.0 mg/kg/injection, schedule: Q04DX003 (ip), vehicle: saline.
Where [7] appears, read: endpoint: mean survival time, dose: 200.0 mg/kg/injection, schedule: Q04DX003 (ip), vehicle: saline.
Where [8] appears, read: endpoint: mean survival time, dose: 400.0 mg/kg/injection, schedule: Q01DX001 (ip), vehicle: saline with Tween-80.
The mark [9] stands for this setting: endpoint: mean survival time, dose: 400.0 mg/kg/injection, schedule: Q04DX003 (ip), vehicle: saline.
[10] abbreviates: endpoint: mean survival time, dose: 50.0 mg/kg/injection, schedule: Q01DX009 (ip), vehicle: saline with Tween-80.
The mark [11] stands for this setting: endpoint: mean survival time, dose: 100.0 mg/kg/injection, schedule: Q01DX009 (ip), vehicle: saline with Tween-80.
The mark [12] stands for this setting: endpoint: mean survival time, dose: 200.0 mg/kg/injection, schedule: Q01DX009 (ip), vehicle: saline with Tween-80.

Molecules are shown by their SMILES. Where “and” joins values, the source holds several entries; their conditions need not be identical. Equal values may be shown once. Toxic doses and inconclusive results are not listed.

Turning to `CCCCCCCCCCCCCCCC(=O)OCC1OC(n2ccc(N)nc2=O)C(O)C1O` (stereo unspecified), the T/C runs as follows: (endpoint: mean survival time, dose: 6.25 mg/kg/injection, schedule: Q01DX008 (ip), vehicle: saline) 320 % of control; (endpoint: mean survival time, dose: 12.5 mg/kg/injection, schedule: Q01DX008 (ip), vehicle: saline) 377 % of control; (endpoint: mean survival time, dose: 16.0 mg/kg/injection, schedule: Q01DX008 (oral), vehicle: saline) 117 % of control; (endpoint: mean survival time, dose: 16.0 mg/kg/injection, schedule: Q03HX024 (oral), vehicle: saline with Tween-80) 202 % of control; (endpoint: mean survival time, dose: 20.0 mg/kg/injection, schedule: Q01DX009 (ip), vehicle: saline with Tween-80) 479 % of control; (endpoint: mean survival time, dose: 25.0 mg/kg/injection, schedule: Q01DX001 (ip), vehicle: saline with Tween-80) 150 % of control. In addition, the T/C reads like this: (endpoint: mean survival time, dose: 25.0 mg/kg/injection, schedule: Q01DX008 (ip), vehicle: saline) 491 % of control; (endpoint: mean survival time, dose: 25.0 mg/kg/injection, schedule: Q01DX009 (ip), vehicle: saline with Tween-80) 484 % of control; (endpoint: mean survival time, dose: 30.0 mg/kg/injection, schedule: Q01DX009 (ip), vehicle: saline with Tween-80) 184 % of control; (endpoint: mean survival time, dose: 32.0 mg/kg/injection, schedule: Q03HX024 (oral), vehicle: saline with Tween-80) 235 % of control; (endpoint: mean survival time, dose: 50.0 mg/kg/injection, schedule: Q01DX001 (ip), vehicle: saline with Tween-80) 192 % of control; (endpoint: mean survival time, dose: 50.0 mg/kg/injection, schedule: Q01DX008 (ip), vehicle: saline) 285 % of control. The T/C (endpoint: mean survival time, dose: 64.0 mg/kg/injection, schedule: Q03HX024 (oral), vehicle: saline with Tween-80) is 265 % of control; the T/C under setting [1] is 312 % of control; the T/C (endpoint: mean survival time, dose: 125.0 mg/kg/injection, schedule: Q01DX001 (ip), vehicle: saline with Tween-80) was 580 % of control; the T/C (endpoint: mean survival time, dose: 128.0 mg/kg/injection, schedule: Q01DX001 (oral), vehicle: saline with Tween-80) was 102 % of control; the T/C (endpoint: mean survival time, dose: 128.0 mg/kg/injection, schedule: Q01DX008 (oral), vehicle: saline) is 151 % of control; the T/C (endpoint: mean survival time, dose: 128.0 mg/kg/injection, schedule: Q03HX024 (oral), vehicle: saline with Tween-80) is 295 % of control. Moreover, the T/C was 119 % of control (endpoint: mean survival time, dose: 128.0 mg/kg/injection, schedule: Q04DX003 (oral), vehicle: saline); 608 % of control (endpoint: mean survival time, dose: 150.0 mg/kg/injection, schedule: Q01DX001 (ip), vehicle: saline with Tween-80); 612 % of control under setting [2]; 214 % of control (endpoint: mean survival time, dose: 250.0 mg/kg/injection, schedule: Q01DX001 (ip), vehicle: saline with Tween-80); 101 % of control (endpoint: mean survival time, dose: 256.0 mg/kg/injection, schedule: Q01DX001 (oral), vehicle: saline with Tween-80); 83 % of control (endpoint: mean survival time, dose: 300.0 mg/kg/injection, schedule: Q01DX001 (ip), vehicle: saline with Tween-80). Besides, the T/C (endpoint: mean survival time, dose: 512.0 mg/kg/injection, schedule: Q01DX001 (oral), vehicle: saline with Tween-80) was 108 % of control; the T/C (endpoint: mean survival time, dose: 512.0 mg/kg/injection, schedule: Q01DX009 (oral), vehicle: saline) is 169 % of control; the T/C (endpoint: mean survival time, dose: 1024.0 mg/kg/injection, schedule: Q01DX001 (oral), vehicle: saline with Tween-80) was 109 % of control; the T/C (endpoint: mean survival time, dose: 1024.0 mg/kg/injection, schedule: Q01DX009 (oral), vehicle: saline) was 177 % of control.

On to `Cc1ccc(NC(=O)c2ccccc2Cl)cc1C`, for which the T/C under setting [3] was 97 % of control, the T/C under setting [4] was 103 % of control and the T/C under setting [5] was 93 % of control.

`CCCCCCOC(=O)C[n+]1ccc(C(N)=O)cc1`: the T/C runs as follows: under setting [6], 101 % of control; under setting [7], 94 % of control.

For the compound `COc1ccc(CC2(C#N)c3ccccc3C=CN2C(=O)c2ccccc2)c([N+](=O)[O-])c1OC` (stereo unspecified), the T/C reads like this: under setting [1], 95 % of control; under setting [2], 97 % of control; under setting [8], 95 % of control.

For the compound `O=C1OCC/C1=C\c1cccc2ccccc12`, the T/C reads like this: under setting [3], 102 % of control; under setting [4], 96 % of control; under setting [5], 97 % of control.

Take `Nc1cc(=O)[nH]c(=S)n1-c1ccccn1`: the T/C is 101 % of control under setting [6], 95 % of control under setting [7] and 97 % of control under setting [9].

Turning to `CC1(C)CC(O)CC(C)(C)N1O`, the T/C is, setting by setting: under setting [10], 102 % of control; under setting [11], 103 % of control; under setting [6], 97 % of control; under setting [12], 96 % of control; under setting [7], 94 % of control; under setting [9], 97 % of control.

On to `COC12C(COC(=O)NCCO)C3=C(C(=O)C(C)=C(N)C3=O)N1CC1NC12` (stereo unspecified), for which the T/C (endpoint: mean survival time, dose: 1.56 mg/kg/injection, schedule: Q01DX009 (ip), vehicle: Klucel (hydroxypropylcellulose) (HPC)) was 112 % of control; the T/C (endpoint: mean survival time, dose: 3.12 mg/kg/injection, schedule: Q01DX009 (ip), vehicle: Klucel (hydroxypropylcellulose) (HPC)) was 114 % of control and 106 % of control; the T/C (endpoint: mean survival time, dose: 6.25 mg/kg/injection, schedule: Q01DX009 (ip), vehicle: Klucel (hydroxypropylcellulose) (HPC)) was 115 % of control and 120 % of control; the T/C (endpoint: mean survival time, dose: 12.5 mg/kg/injection, schedule: Q01DX009 (ip), vehicle: Klucel (hydroxypropylcellulose) (HPC)) was 115 % of control; the T/C (endpoint: mean survival time, dose: 50.0 mg/kg/injection, schedule: Q01DX009 (ip), vehicle: Klucel (hydroxypropylcellulose) (HPC)) was 114 % of control; the T/C (endpoint: mean survival time, dose: 222.0 mg/kg/injection, schedule: Q01DX001 (ip), vehicle: carboxymethylcellulose (CMC)) is 89 % of control.

Take `O=C(NC/C=C/Br)Nc1cccc2c1CCCC2`: the T/C is 94 % of control under setting [10]; 89 % of control under setting [1]; 99 % of control under setting [11]; 86 % of control under setting [2]; 88 % of control under setting [12].

On to `NC(=O)c1cc(Cl)nc2nc(Cl)nc(N)c12`, for which the T/C (endpoint: median survival time, dose: 25.0 mg/kg/injection, schedule: Q01DX009 (ip), vehicle: saline with Tween-80) is 89 % of control; the T/C (endpoint: median survival time, dose: 50.0 mg/kg/injection, schedule: Q01DX009 (ip), vehicle: saline with Tween-80) was 94 % of control; the T/C (endpoint: median survival time, dose: 100.0 mg/kg/injection, schedule: Q01DX009 (ip), vehicle: saline with Tween-80) was 100 % of control; the T/C (endpoint: median survival time, dose: 200.0 mg/kg/injection, schedule: Q01DX009 (ip), vehicle: saline with Tween-80) was 100 % of control; the T/C (endpoint: median survival time, dose: 400.0 mg/kg/injection, schedule: Q01DX009 (ip), vehicle: saline with Tween-80) is 101 % of control.

`CCOC1OC(COC(C)=O)C(OC(C)=O)C(OC(C)=O)C1OC(C)=O` (stereo unspecified): the T/C is 94 % of control under setting [1], 97 % of control under setting [2] and 96 % of control under setting [8].

`Cc1cccc(C)c1Nc1n[nH]c(=S)s1`: the T/C runs as follows: (endpoint: mean survival time, dose: 100.0 mg/kg/injection, schedule: Q01DX001 (ip), vehicle: Klucel (hydroxypropylcellulose) (HPC)) 97 % of control; (endpoint: mean survival time, dose: 200.0 mg/kg/injection, schedule: Q01DX001 (ip), vehicle: Klucel (hydroxypropylcellulose) (HPC)) 101 % of control; (endpoint: mean survival time, dose: 400.0 mg/kg/injection, schedule: Q01DX001 (ip), vehicle: Klucel (hydroxypropylcellulose) (HPC)) 101 % of control.

Turning to `O=S(=O)(c1ccc(Br)cc1)c1ccc(Br)cc1`, the T/C reads like this: under setting [1], 112 % of control; under setting [2], 102 % of control; under setting [8], 97 % of control.

For `O=C(O)c1cc(-c2ccc(Cl)c(Cl)c2)nc2c(Cl)cc(Cl)cc12`, the T/C was 100 % of control (endpoint: mean survival time, dose: 100.0 mg/kg/injection, schedule: Q01DX001 (ip), vehicle: saline); 100 % of control (endpoint: mean survival time, dose: 200.0 mg/kg/injection, schedule: Q01DX001 (ip), vehicle: saline); 97 % of control (endpoint: mean survival time, dose: 400.0 mg/kg/injection, schedule: Q01DX001 (ip), vehicle: saline).

Take `BrC1=C(c2ccccc2)SC(Br)=C(c2ccccc2)S1`: the T/C is, setting by setting: under setting [1], 94 % of control; under setting [2], 87 % of control; under setting [8], 91 % of control.

As to `CCOC12c3c4cccc3Oc3cccc(c31)S(=O)(=O)c1cccc(c12)O4`, the T/C is, setting by setting: under setting [1], 89 % of control; under setting [2], 89 % of control.
